# Where a name gives a salt, the structure may show the parent alone.
# Tested on: not given
# Assay: not given
# Details: not given
row,melting point [°C],Structure (SMILES)
1,196 to 198,"Cc1nc2ccccc2n1Cc1ccc(C(=O)N(C)C2CCNCC2)cc1 [Example 44, N-methyl-4-((2-methyl-1H-benzo[d]imidazol-1-yl)methyl)-N-(piperidin-4-yl)benzamide]"
2,199 to 201,"CN(C(=O)c1ccc(Cn2cnc3ccccc32)cc1)C1CCNCC1 [Example 45, 4-((1H-benzo[d]imidazol-1-yl)methyl)-n-methyl-N-(piperidin-4-yl)benzamide]"
3,178 to 180,"Cc1nc2cc(C#N)ccc2n1-c1ccc(C(=O)N(C)[C@@H]2CCNC2)cc1 [Example 53, (R)-4-(5-cyano-2-methyl-benzoimidazol-1-yl)-N-methyl-N-pyrrolidin-3-yl-benzamide]"

# Target: T1, Human Histamine H3 Receptor (Homo sapiens, UniProt Q9Y5N1)
# T1 construct: expressed in transfected cells; host or cells: HEK293T (stably transfected; membrane preparation)
# Assay: Methyl histamine binding in Human Histamine H3 Receptor Cell Line
# Details: read-out: hH3 Binding Ki
# Protocol: Evaluation of Methyl histamine binding in Human Histamine H3 Receptor Cell Line
# The affinity of test compounds for the histamine 3 (H3) receptor is evaluated in the following manner. […] Cells are scraped from the plate, transferred to centrifuge tubes, washed one time in PBS by centrifugation in a Sorvall RT7 Plus centrifuge (2000 rpm 10 minutes, 4° C.). The resulting pellets are stored at −80° C. until ready for use. Cells are re-suspended in buffer (50 mM Tris pH=7.5) and placed in a Dounce homogenizer, douncing ten times to homogenize cells. The homogenate is spun down by centrifugation (Sorvall RT7 Plus, 1800 rpm 10 minutes, 4° C.). The supernatant is placed in a Corex tube and spun down by centrifugation (Sorvall RC 5c Plus, 17,000 rpm 20 minutes, 4° C.). The pellet is resuspended in buffer (50 mM Tris, pH 7.5). Protein concentration (ug/ul) is determined using the Micro-BCA Protein Determination. The binding assay is set up in a 96 well microtiter plate in a total volume of 250 uL. Non-specific binding is determined in the presence of 10 uM clobenpropit. The final radioligand concentration is 1 nM. The test compound is serially diluted using the Beckman Biomek2000 to a final approximate range of 100 uM to 100 pM. Membranes are suspended in buffer, homogenized in 2 bursts of ten seconds using a Vitris mechanical homogenizer set at power setting 5. Ten μg of membranes are added to each well. Following a one hour incubation at 30° C., the reaction is terminated by the addition of ice cold buffer and rapid filtration with a Packard Filtermate Harvester through a GF/B filter pre-soaked with 1% PEI for one hour. The plate is dried for one hour at 37° C. and 60 μL Microscint Scintillant is added to each well. The CPM per well is measured on a Packard Top Count NXT. Ki values are determined in nM. […] CPM values are expressed as % specific binding and plotted vs compound concentration. A curve is fitted using a four-parameter logistic fit and the IC50 value is determined. The Ki is calculated from this using the Cheng-Prusoff equation: […]=IC50/1+(L/Kd) where L=concentration of free radioligand used in the assay, and Kd is the dissociation constant of the radioligand for the receptor. L is determined for each experiment by counting an aliquot of the diluted radioligand (corresponding to that added to each well) and the Kd has previously been determined under identical conditions for this cell line/radioligand.
# T1 sequence (Q9Y5N1 whole entry): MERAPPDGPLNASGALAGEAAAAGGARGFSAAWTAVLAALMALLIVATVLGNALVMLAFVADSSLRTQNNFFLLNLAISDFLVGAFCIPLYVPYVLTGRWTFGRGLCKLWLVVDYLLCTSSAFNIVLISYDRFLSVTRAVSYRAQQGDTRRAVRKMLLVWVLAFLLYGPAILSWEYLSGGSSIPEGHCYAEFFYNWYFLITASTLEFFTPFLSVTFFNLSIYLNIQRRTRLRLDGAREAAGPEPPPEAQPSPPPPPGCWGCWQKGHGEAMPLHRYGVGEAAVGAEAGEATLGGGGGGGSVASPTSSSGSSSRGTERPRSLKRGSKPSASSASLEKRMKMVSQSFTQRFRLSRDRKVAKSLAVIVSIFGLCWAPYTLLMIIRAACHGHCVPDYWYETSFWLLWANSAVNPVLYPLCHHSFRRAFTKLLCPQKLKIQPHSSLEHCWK
row,Ki [nM],Structure (SMILES)
1,> 100,"Cc1nc2ccccc2n1Cc1ccc(C(=O)N(C)C2CCNCC2)cc1 [Example 44, N-methyl-4-((2-methyl-1H-benzo[d]imidazol-1-yl)methyl)-N-(piperidin-4-yl)benzamide]"
2,> 100,"CN(C(=O)c1ccc(Cn2cnc3ccccc32)cc1)C1CCNCC1 [Example 45, 4-((1H-benzo[d]imidazol-1-yl)methyl)-n-methyl-N-(piperidin-4-yl)benzamide]"
3,> 100,"Cc1nc2cc(C#N)ccc2n1-c1ccc(C(=O)N(C)[C@@H]2CCNC2)cc1 [Example 53, (R)-4-(5-cyano-2-methyl-benzoimidazol-1-yl)-N-methyl-N-pyrrolidin-3-yl-benzamide]"
4,50.1 to 100,"CC(C)N1CCC(N(C)C(=O)c2ccc(Cn3ncc4ccccc43)cc2)CC1 [Example 79, 4-(1H-indazol-1-ylmethyl)-N-(1-isopropylpiperidin-4-yl)-N-methylbenzamide]"
5,> 100,"CN(C(=O)c1ccc(Cn2ncc3ccccc32)cc1)C1CCN(C2CCC2)CC1 [Example 80, N-(1-cyclobutylpiperidin-4-yl)-4-(1H-indazol-1-ylmethyl)-N-methylbenzamide]"
6,> 100,"CN(C(=O)c1ccc(Cn2ncc3ccccc32)cc1)C1CCN(C2CCCC2)CC1 [Example 81, N-(1-cyclopentylpiperidin-4-yl)-4-(1H-indazol-1-ylmethyl)-N-methylbenzamide]"
7,> 100,"CC(C)N1CCC(N(C)C(=O)c2ccc(-n3cccn3)cc2)CC1 [Example 85, N-(1-isopropylpiperidin-4-yl)-N-methyl-4-(1H-pyrazol-1-yl)benzamide]"
8,> 100,"CN(C(=O)c1ccc(-n2cccn2)cc1)C1CCN(C2CCC2)CC1 [Example 86, N-(1-cyclobutylpiperidin-4-yl)-N-methyl-4-(1H-pyrazol-1-yl)benzamide]"
9,> 100,"CN(C(=O)c1ccc(-n2cccn2)cc1)C1CCN(C2CCCC2)CC1 [Example 87, N-(1-cyclopentylpiperidin-4-yl)-N-methyl-4-(1H-pyrazol-1-yl)benzamide]"
10,> 100,"CC(C)N1CCC(N(C)C(=O)c2ccc(Cn3cccn3)cc2)CC1 [Example 91, N-methyl-N-[1-(1-methylethyl)piperidin-4-yl]-4-(1H-pyrazol-1-ylmethyl)benzamide]"
11,> 100,"CN(C(=O)c1ccc(Cn2cccn2)cc1)C1CCN(C2CCC2)CC1 [Example 92, N-(1-cyclobutylpiperidin-4-yl)-N-methyl-4-(1H-pyrazol-1-ylmethyl)benzamide]"
12,> 100,"CN(C(=O)c1ccc(Cn2cccn2)cc1)C1CCN(C2CCCC2)CC1 [Example 93, N-(1-cyclopentylpiperidin-4-yl)-N-methyl-4-(1H-pyrazol-1-ylmethyl)benzamide]"
13,10.1 to 50,"Cc1nc2ccccc2n1-c1ccc(C(=O)N(C)[C@@H]2CCN(C(C)C)C2)cc1F [Example 103, 3-fluoro-N-methyl-4-(2-methyl-1H-benzimidazol-1-yl)-N-[(3R)-1-(1-methylethyl)pyrrolidin-3-yl]benzamide]"
14,10.1 to 50,"Cc1nc2ccccc2n1-c1ccc(C(=O)N(C)[C@@H]2CCN(C3CCC3)C2)cc1F [Example 104, N-[(3R)-1-cyclobutylpyrrolidin-3-yl]-3-fluoro-N-methyl-4-(2-methyl-1H-benzimidazol-1-yl)benzamide]"
15,10.1 to 50,"Cc1nc2ccccc2n1-c1ccc(C(=O)N(C)[C@@H]2CCN(C(C)C)C2)c(Cl)c1 [Example 105, 2-chloro-N-methyl-4-(2-methyl-1H-benzimidazol-1-yl)-N-[(3R)-1-(1-methylethyl)pyrrolidin-3-yl]benzamide]"
16,10.1 to 50,"Cc1nc2ccccc2n1-c1ccc(C(=O)N(C)[C@@H]2CCN(C3CCC3)C2)c(Cl)c1 [Example 106, 2-chloro-N-[(3R)-1-cyclobutylpyrrolidin-3-yl]-N-methyl-4-(2-methyl-1H-benzimidazol-1-yl)benzamide]"
17,≤ 10,"Cc1nc2ccccc2n1-c1ccc(C(=O)N(C)C2CCN(C(C)C)CC2)cc1F [Example 119, 3-fluoro-N-methyl-4-(2-methyl-1H-benzimidazol-1-yl)-N-[1-(1-methylethyl)piperidin-4-yl]benzamide]"
18,10.1 to 50,"Cc1nc2ccccc2n1-c1ccc(C(=O)N(C)C2CCN(C3CCCC3)CC2)cc1F [Example 120, N-(1-cyclopentylpiperidin-4-yl)-3-fluoro-N-methyl-4-(2-methyl-1H-benzimidazol-1-yl)benzamide]"
19,≤ 10,"Cc1nc2ccccc2n1-c1ccc(C(=O)N(C)C2CCN(C(C)C)CC2)c(Cl)c1 [Example 121, 2-chloro-N-methyl-4-(2-methyl-1H-benzimidazol-1-yl)-N-[1-(1-methylethyl)piperidin-4-yl]benzamide]"
20,50.1 to 100,"Cc1nc2ccccc2n1-c1ccc(C(=O)N(C)C2CCN(C3CCCC3)CC2)c(Cl)c1 [Example 122, 2-chloro-N-(1-cyclopentylpiperidin-4-yl)-N-methyl-4-(2-methyl-1H-benzimidazol-1-yl)benzamide]"
21,> 100,"Cc1nc2ccccc2n1-c1ccc(C(=O)N[C@@H]2CCN(C3CCCCC3)C2)cc1 [Example 137, N-[(3R)-1-cyclohexylpyrrolidin-3-yl]-4-(2-methyl-1H-benzimidazol-1-yl)benzamide]"
22,> 100,"CCN(C(=O)c1ccc(-n2c(C)nc3ccccc32)cc1)[C@@H]1CCNC1 [Example 138, (R)—N-ethyl-4-(2-methyl-1H-benzo[d]imidazol-1-yl)-N-(pyrrolidin-3-yl)benzamide hydrochloride]"
23,> 100,"CCN(C(=O)c1ccc(-n2c(C)nc3ccccc32)cc1)[C@@H]1CCN(C2CCCCC2)C1 [Example 142, N-[(3R)-1-cyclohexylpyrrolidin-3-yl]-N-ethyl-4-(2-methyl-1H-benzimidazol-1-yl)benzamide]"

# — patent US20080293771A1, “AZACYCLYLBENZAMIDE DERIVATIVES AS HISTAMINE-3 ANTAGONISTS” (Wyeth, priority 2007, published 2008)
